# Results from ChEMBL document CHEMBL1143897, “Aryl-indolyl maleimides as inhibitors of CaMKIIdelta. Part 2: SAR of the amine tether” (Bioorg Med Chem Lett, 2008).
# Target: Calcium/calmodulin-dependent protein kinase type II subunit delta (Homo sapiens, UniProt Q13557)
# Assay: Inhibition of CaMK2delta
# Sequence of Calcium/calmodulin-dependent protein kinase type II subunit delta (Q13557 whole entry): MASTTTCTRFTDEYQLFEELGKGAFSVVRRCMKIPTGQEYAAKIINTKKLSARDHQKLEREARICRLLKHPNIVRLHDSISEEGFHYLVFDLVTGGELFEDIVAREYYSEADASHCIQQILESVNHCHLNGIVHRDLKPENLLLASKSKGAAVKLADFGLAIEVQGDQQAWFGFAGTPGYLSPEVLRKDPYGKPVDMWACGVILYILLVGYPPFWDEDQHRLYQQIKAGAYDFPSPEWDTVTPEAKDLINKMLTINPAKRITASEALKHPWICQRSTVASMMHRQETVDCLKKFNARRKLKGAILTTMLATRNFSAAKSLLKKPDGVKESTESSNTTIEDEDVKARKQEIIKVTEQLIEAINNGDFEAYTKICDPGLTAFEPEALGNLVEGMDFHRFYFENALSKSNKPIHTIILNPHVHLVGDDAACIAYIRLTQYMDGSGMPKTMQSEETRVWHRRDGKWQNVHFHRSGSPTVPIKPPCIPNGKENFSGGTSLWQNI
row,SMILES,IC50 [µM]
1,O=C1NC(=O)C(c2c[nH]c3ccccc23)=C1c1cccc(Br)c1,3.53
2,Cn1cc(C2=C(c3cn(C4CCCNC4)c4ccccc34)C(=O)NC2=O)c2ccccc21 (stereo not drawn),0.3
3,CC(C)(C)OC(=O)NCCCn1cc(C2=C(c3c[nH]c4ccc(Br)cc34)C(=O)NC2=O)c2ccccc21,7.54
4,NCCCn1cc(C2=C(c3c[nH]c4ccc(Br)cc34)C(=O)NC2=O)c2ccccc21,0.034
5,O=C1NC(=O)C(c2cn(CCC3CCCCN3)c3ccccc23)=C1c1c[nH]c2ccccc12 (stereo not drawn),1.45
6,CC(C)(C)OC(=O)NCCCn1cc(C2=C(c3c[nH]c4ccccc34)C(=O)NC2=O)c2ccccc21,3.81
7,NCC(O)Cn1cc(C2=C(c3ccccc3)C(=O)NC2=O)c2ccccc21 (stereo not drawn),0.45
8,NCCCn1cc(C2=C(c3cccc(Br)c3)C(=O)NC2=O)c2ccccc21,0.18
9,Cn1cc(C2=C(c3ccccc3)C(=O)NC2=O)c2ccccc21,> 20
10,Cn1cc(C2=C(c3c[nH]c4ccc(Br)cc34)C(=O)NC2=O)c2ccccc21,0.87
11,NCCCn1cc(C2=C(c3ccccc3)C(=O)NC2=O)c2ccccc21,1.35
12,CN1CCCC1CCn1cc(C2=C(c3c[nH]c4ccccc34)C(=O)NC2=O)c2ccccc21 (stereo not drawn),1.89
13,O=C1NC(=O)C(c2c[nH]c3ccccc23)=C1c1ccccc1,> 20
14,Cn1cc(C2=C(c3cn(CCCN)c4ccccc34)C(=O)NC2=O)c2ccccc21,0.31
15,CC(C)(C)OC(=O)NCCCn1cc(C2=C(c3ccccc3)C(=O)NC2=O)c2ccccc21,> 20
16,O=C1NC(=O)C(c2c[nH]c3ccccc23)=C1c1c[nH]c2ccccc12 [RO-316233],1.19
17,O=C1NC(=O)C(c2cn(CCCN3CCNCC3)c3ccccc23)=C1c1c[nH]c2ccccc12,2.02
18,Cn1cc(C2=C(c3cn(C4CCN(Cc5ccccc5)CC4)c4ccccc34)C(=O)NC2=O)c2ccccc21,1.87
